Experimental data as given in US20050175599A1, “Process for producing substance” (Kyowa Hakko Kogyo Co., Ltd., priority 2001, published 2005).

Test system: transformant cell line 61-33γ (host YB2/0) producing a chimeric anti-GD3 antibody
Assay: Fed-batch culture of antibody-producing cells in Q10-containing medium (Example 2)
Type: cell-based, rat
Settings: Q10-added culture, 50 μmol/L Q10 dissolved in Tween 80, fed-batch culture 11 days
Procedure: The following fed-batch culture was performed with transformant cell line 61-33γ (FERM BP-7325) which was obtained by using hybridoma cell line YB2/0 derived from a rat myeloma cell line as a host cell and produces a chimeric anti-GD3 antibody.
In a T-225 cm^2 flask charged with 30 mL of a serum-free medium (Hybridoma-SFM; manufactured by Invitrogen Corporation), the cells were inoculated to a cell density of 3×10^5 cells/mL, followed by stationary culture in a 5%-CO2 incubator at 37° C. for 3 days.
On the completion of culturing, the resulting cells were inoculated in a 1-liter spinner flask (manufactured by Shibata Hario, Co., Ltd.) containing 0.7 liter of Hybridoma-SFM to 3×10^5 cells/ml. While adjusting the liquid culture to pH 7.1 ±0.1 and the dissolved oxygen concentration to 3±0.2 ppm, culturing was carried out at 37° C. for 11 days under the condition of stirring at 50 rpm. Aeration was carried out via a porous polytetrafluoroethylene tube arranged in the spinner flask, and a mixture gas of air, oxygen and carbon dioxide was supplied. Additionally, the pH was controlled by changing the ratio of air and carbon dioxide and by feeding 1 mol/L sodium carbonate solution. Furthermore, the dissolved oxygen concentration was controlled by changing the ratio of air and oxygen. […]

## COC1=C(OC)C(=O)C(C/C=C(\C)CC/C=C(\C)CC/C=C(\C)CC/C=C(\C)CC/C=C(\C)CC/C=C(\C)CC/C=C(\C)CC/C=C(\C)CC/C=C(\C)CCC=C(C)C)=C(C)C1=O [Q10]
Q10-free culture 2.97×10^7
  cumulative number of cells on the completion of culturing: 3.98×10^7 cells/ml×days
Q10-free culture = 100%
  relative specific antibody production rate: 137.1%
